Experimental data from publication PMC7725003, “Systematically Studying the Optimal Amino Acid Distribution Patterns of the Amphiphilic Structure by Using the Ultrashort Amphiphiles” (Frontiers in Microbiology, 2020).
Where no end group is shown, it is not given here.

Tests used:
E. faecalis 29212 = format: cell-based, Enterococcus faecalis; details: 29212, 24 h
Outline: (§1)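 Peptides, diluted in 0.2% BSA, were mixed with mid-logarithmic cells in MHB (0.5–1 × 10^6 CFU/mL) and incubated for 24 h at 37 °C. Absorbance at 492 nm defined MIC as 95% growth inhibition; subculture onto agar overnight gave MBC as >99.9% kill.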

S. aureus 25923 = format: cell-based, Staphylococcus aureus; details: 25923, 24 h
Outline: as §1

S. aureus 29213 [1] = format: cell-based, Staphylococcus aureus; details: 29213, 24 h
Outline: as §1

Gram-negative bacteria [2] = details: geometric mean of MBCs, 9 Gram-negative strains (Table 2)
S. pullorum 7913 = format: cell-based, Salmonella pullorum; details: 7913, 24 h
Outline: as §1

Gram-positive bacteria [3] = details: geometric mean of MBCs, 7 Gram-positive strains (Table 2)
[4] = tested on: all of the tested bacterial strains; assay: Geometric mean of MICs, all tested bacterial strains; format: cell-based; details: for GM, All: geometric mean of MICs across all tested strains; for TI, All: therapeutic index TI = MHC/GM MIC
Outline: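 Mid-log bacteria at 0.5–1 × 10^6 CFU mL^–1 in MHB with peptides serially diluted in 0.2% BSA, 24 h at 37°C. MIC is the lowest concentration giving 95% growth inhibition by A492. MBC is the lowest giving >99.9% kill on agar subculture, and the GM is taken over all strains.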

E. coli UB1005 = format: cell-based, Escherichia coli; details: UB1005, 24 h
Outline: as §1

E. coli O78 = format: cell-based, Escherichia coli; details: O78, 24 h
Outline: as §1

E. coli 25922 = format: cell-based, Escherichia coli; details: 25922, 24 h
Outline: as §1

Gram-positive bacteria [5] = details: for GM MIC: geometric mean of MICs, 7 Gram-positive strains (Table 2); for TI, Gram-positive bacteria: therapeutic index TI = MHC/GM MIC
Outline: (§2)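 Broth microdilution adapted from NCCLS: mid-log bacteria diluted in MHB to 0.5–1 × 10^6 CFU mL^–1, mixed with peptides serially diluted in 0.2% BSA. After 24 h at 37°C, MIC taken as the lowest concentration inhibiting 95% of growth by absorbance at 492 nm. Assays repeated more than 3 times.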

Gram-negative bacteria [6] = details: for GM MIC: geometric mean of MICs, 9 Gram-negative strains (Table 2); for TI, Gram-negative bacteria: therapeutic index TI = MHC/GM MIC
Outline: as §2

[7] = tested on: Listeria monocytogenes CGMCC 1.1075; format: cell-based; details: CGMCC 1.1075, 24 h
Outline: as §1

S. typhimurium 7731 = format: cell-based, Salmonella typhimurium; details: 7731, 24 h
Outline: as §1

S. typhimurium 14028 = format: cell-based, Salmonella typhimurium; details: 14028, 24 h
Outline: as §1

E. coli K99 = details: for MIC: MHB, 24 h 37°C, 95% growth inhibition
Method: (§3) The antimicrobial activities of the peptides were measured using a method adapted from the National Committee for Clinical Laboratory Standards (NCCLS) with some modifications ([Chou et al., 2016]). The specific procedure for these assays has been previously described. In brief, the bacterial cells were grown to a mid-logarithmic phase and diluted in MHB to an ultimate concentration of 0.5–1 × 10^6 CFU mL^–1. Subsequently, the peptides were consecutively diluted in a 0.2% BSA solution and then added to a bacterial solution in a 96-well plate at identical volumes. After incubation for 24 h at 37°C, the MICs were determined to be the lowest peptide concentration that inhibited 95% of the bacterial growth by monitoring the absorbance at 492 nm using a microplate reader. Subsequently, 50 μL of each incubation mixture was further transferred to agar plates and incubated overnight. […] Every assay was reproduced more than 3 times.

E. coli K88 = details: for MIC: MHB, 24 h 37°C, 95% growth inhibition; for MBC: value in brackets, >99.9% of cells killed
Method: as §3

P. aeruginosa 27853 = format: cell-based, Pseudomonas aeruginosa; details: 27853, 24 h
Outline: as §1

S. aureus 29213 [8] = assay: Salt sensitivity assay (MIC); format: cell-based, Staphylococcus aureus; details: for MIC, FeCl3: 4 μM FeCl3; for MIC, NH4Cl: 6 μM NH4Cl; for MIC, ZnCl2: 8 μM ZnCl2; for MIC, MgCl2: 1 mM MgCl2; for MIC, CaCl2: 2 mM CaCl2; for MIC, KCl: 4.5 mM KCl; for MIC, NaCl: 150 mM NaCl; for MIC, Control: no added salt, three independent assays
Outline: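 MICs determined by broth microdilution in MHB with 0.5–1 × 10^6 CFU/mL, peptides serially diluted in 0.2% BSA, 24 h at 37°C. Medium supplemented with physiological salts (150 mM NaCl, 4.5 mM KCl, 6 μM NH4Cl, 8 μM ZnCl2, 1 mM MgCl2, 2mM CaCl2, 4 μM FeCl3). MIC = lowest concentration inhibiting 95% growth (A492).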

E. coli ATCC 25922 = assay: Salt sensitivity assay (MIC); format: cell-based, Escherichia coli; details: for MIC, FeCl3: 4 μM FeCl3; for MIC, NH4Cl: 6 μM NH4Cl; for MIC, ZnCl2: 8 μM ZnCl2; for MIC, MgCl2: 1 mM MgCl2; for MIC, CaCl2: 2 mM CaCl2; for MIC, KCl: 4.5 mM KCl; for MIC, NaCl: 150 mM NaCl; for MIC, Control: no added salt, three independent assays
Outline: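 The salt sensitivity of peptides was tested against E. coli ATCC 25922 using a modified NCCLS broth microdilution MIC method. Mid-log bacteria were diluted in MHB to 0.5–1 × 10^6 CFU mL^–1 and mixed in equal volumes with peptides serially diluted in 0.2% BSA in 96-well plates. Physiological salt was added where specified, and the assay was done three independent times.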

S. epidermidis 12228 = format: cell-based, Staphylococcus epidermidis; details: 12228, 24 h
Outline: as §1

MRSA 43300 = format: cell-based, methicillin-resistant S. aureus; details: 43300, 24 h
Outline: as §1

B. subtilis 63501 = format: cell-based, Bacillus subtilis; details: 63501, 24 h
Outline: as §1

## LRRLRLLRL-NH2 [L12]
E. faecalis 29212
  MIC: > 64 µM
S. aureus 25923
  MIC: > 64 µM
S. aureus 29213 [1]
  MIC: >64 µM
Gram-negative bacteria [2]
  GM MBC: 87.09 µM
S. pullorum 7913
  MBC: 64 µM
  MIC: 32 µM
Gram-positive bacteria [3]
  GM MBC: 86.14 µM
[4]
  GM, All: 64.00 µM
  TI, All: 4.00
E. coli UB1005
  MBC: 64 µM
  MIC: 32 µM
E. coli O78
  MBC: 128 µM
  MIC: 64 µM
E. coli 25922
  MBC: 64 µM
  MIC: 32 µM
Gram-positive bacteria [5]
  GM MIC: 70.66 µM
  TI, Gram-positive bacteria: 3.62
Gram-negative bacteria [6]
  GM MIC: 59.26 µM
  TI, Gram-negative bacteria: 4.32
[7]
  MBC: 32 µM
  MIC: 16 µM
S. typhimurium 7731
  MIC: > 64 µM
S. typhimurium 14028
  MIC: > 64 µM
E. coli K99
  MIC: > 64 µM
E. coli K88
  MIC: 16 µM
  MBC: 32 µM
P. aeruginosa 27853
  MIC: > 64 µM
S. aureus 29213 [8]
  MIC, FeCl3: > 64 µM
  MIC, NH4Cl: > 64 µM
  MIC, ZnCl2: > 64 µM
  MIC, MgCl2: > 64 µM
  MIC, CaCl2: > 64 µM
  MIC, KCl: > 64 µM
  MIC, NaCl: > 64 µM
  MIC, Control: > 64 µM
E. coli ATCC 25922
  MIC, FeCl3: 32 µM
  MIC, NH4Cl: 32 µM
  MIC, ZnCl2: 32 µM
  MIC, MgCl2: > 64 µM
  MIC, CaCl2: > 64 µM
  MIC, KCl: 32 µM
  MIC, NaCl: > 64 µM
  MIC, Control: 32 µM
S. epidermidis 12228
  MIC: > 64 µM
MRSA 43300
  MIC: >64 µM
B. subtilis 63501
  MBC: 32 µM
  MIC: 16 µM

## RLLLLRRLR-NH2 [L10]
E. faecalis 29212
  MIC: > 64 µM
S. aureus 25923
  MIC: > 64 µM
S. aureus 29213 [1]
  MIC: >64 µM
Gram-negative bacteria [2]
  GM MBC: 64.00 µM
S. pullorum 7913
  MIC: > 64 µM
Gram-positive bacteria [3]
  GM MBC: 86.14 µM
[4]
  GM, All: 51.54 µM
  TI, All: 4.97
E. coli UB1005
  MIC: > 64 µM
E. coli O78
  MBC: 32 µM
  MIC: 16 µM
E. coli 25922
  MBC: 64 µM
  MIC: 32 µM
Gram-positive bacteria [5]
  GM MIC: 70.66 µM
  TI, Gram-positive bacteria: 3.62
Gram-negative bacteria [6]
  GM MIC: 40.32 µM
  TI, Gram-negative bacteria: 6.35
[7]
  MBC: 32 µM
  MIC: 16 µM
S. typhimurium 7731
  MBC: 128 µM
  MIC: 64 µM
S. typhimurium 14028
  MIC: >64 µM
E. coli K99
  MIC: 4 µM
E. coli K99; value in brackets, >99.9% of cells killed
  MBC: 8 µM
E. coli K88
  MIC: 32 µM
  MBC: 64 µM
P. aeruginosa 27853
  MBC: 64 µM
  MIC: 32 µM
S. aureus 29213 [8]
  MIC, FeCl3: > 64 µM
  MIC, NH4Cl: > 64 µM
  MIC, ZnCl2: > 64 µM
  MIC, MgCl2: > 64 µM
  MIC, CaCl2: > 64 µM
  MIC, KCl: > 64 µM
  MIC, NaCl: > 64 µM
  MIC, Control: > 64 µM
E. coli ATCC 25922
  MIC, FeCl3: 32 µM
  MIC, NH4Cl: 32 µM
  MIC, ZnCl2: 32 µM
  MIC, MgCl2: 32 µM
  MIC, CaCl2: 32 µM
  MIC, KCl: 32 µM
  MIC, NaCl: 32 µM
  MIC, Control: 32 µM
S. epidermidis 12228
  MIC: > 64 µM
MRSA 43300
  MIC: >64 µM
B. subtilis 63501
  MBC: 32 µM
  MIC: 16 µM

## LLLRRRRLL-NH2 [L4]
E. faecalis 29212
  MIC: > 64 µM
S. aureus 25923
  MIC: > 64 µM
S. aureus 29213 [1]
  MIC: >64 µM
Gram-negative bacteria [2]
  GM MBC: 128 µM
S. pullorum 7913
  MIC: >64 µM
Gram-positive bacteria [3]
  GM MBC: 95.10 µM
[4]
  GM, All: 107.63 µM
  TI, All: 2.38
E. coli UB1005
  MIC: >64 µM
E. coli O78
  MIC: >64 µM
E. coli 25922
  MIC: > 64 µM
Gram-positive bacteria [5]
  GM MIC: 86.14 µM
  TI, Gram-positive bacteria: 2.97
Gram-negative bacteria [6]; geometric mean of MICs (Table 3)
  GM, Gram-negative bacteria: 128.00 µM
Gram-negative bacteria [6]
  GM MIC: 128 µM
  TI, Gram-negative bacteria: 2.00
[7]
  MIC: >64 µM
S. typhimurium 7731
  MIC: > 64 µM
S. typhimurium 14028
  MIC: > 64 µM
E. coli K99
  MIC: > 64 µM
E. coli K88
  MIC: >64 µM
P. aeruginosa 27853
  MIC: > 64 µM
S. aureus 29213 [8]
  MIC, FeCl3: > 64 µM
  MIC, NH4Cl: > 64 µM
  MIC, ZnCl2: > 64 µM
  MIC, MgCl2: > 64 µM
  MIC, CaCl2: > 64 µM
  MIC, KCl: > 64 µM
  MIC, NaCl: > 64 µM
  MIC, Control: > 64 µM
E. coli ATCC 25922
  MIC, FeCl3: > 64 µM
  MIC, NH4Cl: > 64 µM
  MIC, ZnCl2: > 64 µM
  MIC, MgCl2: > 64 µM
  MIC, CaCl2: > 64 µM
  MIC, KCl: > 64 µM
  MIC, NaCl: > 64 µM
  MIC, Control: > 64 µM
S. epidermidis 12228
  MIC: > 64 µM
MRSA 43300
  MIC: >64 µM
B. subtilis 63501
  MBC: 16 µM
  MIC: 8 µM
